Assay results published in patent US20240293360A1 (priority 2021, published 2024).

Tested on: cancer cell lines HCT-116, SCC VII, and A549
Type: cell-based

O=C(CBr)N1CC([N+](=O)[O-])([N+](=O)[O-])C1 [Sample 2, 2-bromo-1-(3,3-dinitroazetidin-1-yl)ethanone]
suppressing viability of cancer cell lines, compared to impact sensitive form of ABDNAZ (samples 1 and 3): more effective
